Non-standard residues stand in square brackets, D forms with d. Residues, ends and D or L forms follow the SMILES beside them. *: point of attachment. Thz = O=C(O)[C@@H]1CSCN1; Cbz = O=C(OCc1ccccc1)*
Tests used:
[1] = system: scopolamine-induced amnesia; test: Step-down passive avoidance test (anti-amnestic activity, scopolamine-induced amnesia); assay type: in vivo, rats; conditions: scopolamine 0.5 mg/kg i.p., relative to scopolamine-treated group, retention trial 24 hours after acquisition
From the text: A step-down passive avoidance test on rats was used as the method of assay for anti-amnestic activity to estimate the preventive effect of prolylendopeptidase inhibitors on scopolamine-induced amnesia. This method of assay involved application of electric shocks to animals upon their stepping down on a grid floor to see whether they have learned that such shocks can be avoided by staying on a platform. A passive avoidance test chamber used in this experiment was comprised of an electrifiable grid floor (20 cm in length and 22 cm in width) and a platform (20 cm in length, 15 cm in width and 5 cm in height) placed at the right back corner thereof.
5-Weeks-old male rats of Wister strain weighing 100-150 g (purchased from Japan Clea Laboratory) were used in the test.
Each test compound used in the doses indicated in Tables 1 - 4 was dissolved or suspended in 4% gum arabic-containing distilled water (1.0 ml) and administered p.o. one hour before the commencement of acquisition trial. In addition, scopolamine hydrobromide dissolved in saline (0.5 ml) was intraperitoneally administered in a dose of 0.5 mg/kg 30 minutes before the acquisition trial to prepare experimental animal models of amnesia.
In the acquisition trial, the rat was placed on the platform in the test chamber and, when the animal stepped down on the grid floor, the electric current of 5.0 mA was immediately sent to the grid floor continuously until the animal went up on the platform. If the rat having gone up on the platform stayed there for more than 30 seconds, the animal was regarded to have learned the situation and taken out of the test chamber. A total time of measurement in the acquisition trial was limited to 300 seconds as maximum, and the time elapsing until the rat learned the situation was measured. In order to avoid any significant difference in the rats, those which took more than 300 seconds for the learning were excluded from the experiment.
The retention trial was carried out 24 hours after the acquisition trial. In this trial, the rat was placed again on the platform in the test chamber, the time elapsing until the animal stepped down onto the grid floor (the step-down latency) was measured.
In each of these tables they are indicated as relative step-down latency, shown by each test compound-treated group in the retention trial, to step-down latency for scopolamine-treated group (i.e. test compound-treated group's step-down latency/scopolamine-treated group's step-down latency).

[2] = target: T1, bovine brain PEP (Bos taurus, UniProt Q9XTA2); test: Inhibitory activity against proline endopeptidase (PEP), substrate Z-Gly-Pro-β-NA; assay type: biochemical; conditions: pH 7.0, 37°C
T1 construct: from tissue; host or cells: bovine brain
T1 sequence (Q9XTA2 1-710): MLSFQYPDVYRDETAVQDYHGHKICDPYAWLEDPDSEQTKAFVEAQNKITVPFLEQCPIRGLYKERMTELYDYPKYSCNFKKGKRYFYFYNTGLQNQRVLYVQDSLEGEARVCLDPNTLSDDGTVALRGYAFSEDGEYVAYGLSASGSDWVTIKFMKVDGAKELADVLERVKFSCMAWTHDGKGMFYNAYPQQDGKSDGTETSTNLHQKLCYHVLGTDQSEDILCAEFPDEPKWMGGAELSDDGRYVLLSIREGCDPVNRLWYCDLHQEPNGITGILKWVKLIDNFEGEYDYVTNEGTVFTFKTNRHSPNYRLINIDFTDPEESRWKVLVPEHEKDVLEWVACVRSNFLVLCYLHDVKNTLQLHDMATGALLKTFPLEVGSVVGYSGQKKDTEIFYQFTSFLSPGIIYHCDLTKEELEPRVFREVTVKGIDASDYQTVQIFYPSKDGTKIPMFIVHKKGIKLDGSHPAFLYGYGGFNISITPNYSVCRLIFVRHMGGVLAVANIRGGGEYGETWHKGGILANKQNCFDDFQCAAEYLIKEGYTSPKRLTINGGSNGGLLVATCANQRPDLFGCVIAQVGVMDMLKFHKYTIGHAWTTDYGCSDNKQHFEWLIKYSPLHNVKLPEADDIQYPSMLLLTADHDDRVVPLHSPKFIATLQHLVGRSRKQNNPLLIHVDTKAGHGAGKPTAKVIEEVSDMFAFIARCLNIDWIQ
Method: The thioproline derivatives of the general formula (I) shown above as test compound were assayed for inhibitory activity against bovine brain PEP by the following test procedure using as substrate N-benzyloxycarbonyl-glycyl-proline-β-naphthylamide (Z-Gly-Pro-β-NA).
100 µl of PEP (about 0.14 U/ml) and 100µl of one of test compound solutions adjusted to different concentrations (0, 10⁻⁹ - 10⁻⁴M) were added to 0.7 ml of 20 mM Tris-HCl buffer (pH = 7.0) containing 10 mM EDTA and 10 mM 2-mercaptoethanol, and the mixture was preincubated at 37°C for 5 minutes. […] The reaction was […] using 25% trichloroacetic acid, and the reaction mixture was centrifuged at 3,000 r.p.m. for 10 minutes. To 0.5 ml of the supernatent was added 0.5 ml of 0.1% nitrous acid, and after 3 minutes 0.05% solution of N-(l-naphthyl)etnylenediamine dihydrochloride in ethanol was added thereto. The mixture was allowed to stand at 37°C for 25 minutes and then the absorbance at 570 nm was measured.
Enzyme Activity Unit = ΔOD x 0.42 x Dilution ratio (µmol/min/ml)

SMILES	Relative step-down latency in retention trial (mean±S.E.) ([1]; Table 2, dose 0.008 mg/kg p.o.)	Relative step-down latency in retention trial (mean±S.E.) ([1]; Table 2, dose 0.04 mg/kg p.o.)	Relative step-down latency in retention trial (mean±S.E.) ([1]; Table 2, dose 0.2 mg/kg p.o.)	Relative step-down latency in retention trial (mean±S.E.) ([1]; Table 2, dose 1 mg/kg p.o.)	Relative step-down latency in retention trial (mean±S.E.) ([1]; Table 2, dose 5 mg/kg p.o.)	Relative step-down latency in retention trial (mean±S.E.) ([1]; Table 2, dose 25 mg/kg p.o.)	IC50 [2]	Relative step-down latency in retention trial (mean±S.E.) ([1]; Table 3, dose 12.5 mg/kg p.o.)	Relative step-down latency in retention trial (mean±S.E.) ([1]; Table 3, dose 25 mg/kg p.o.)	Relative step-down latency in retention trial (mean±S.E.) ([1]; Table 3, dose 50 mg/kg p.o.)	Relative step-down latency in retention trial (mean±S.E.) ([1]; Table 3, dose 100 mg/kg p.o.)
O=C[C@@H]1CSCN1C(=O)[C@@H]1CSCN1C(=O)OCc1ccccc1 [ZTT, Benzyloxycarbonyl-L-thioprolyl-L-thioprolinal, reference compound] (Cbz-[Thz]-[Thz]-aldehyde)	1.0±0.3	3.0±1.2	2.6±0.9	1.6±0.8	1.0±0.2	1.4±0.9					
CCOC(OCC)[C@@H]1CSCN1C(=O)[C@@H]1CSCN1C(=O)OCc1ccccc1 [Example 2, Benzyloxycarbonyl-L-thioprolyl-L-thioprolinal diethyl acetal]	1.5±0.6	2.7±1.4	1.7±0.9	2.3±1.2	1.5±0.6	1.3±0.7	250 µM				
COC(OC)[C@@H]1CSCN1C(=O)[C@@H]1CSCN1C(=O)OCc1ccccc1 [Example 1, Benzyloxycarbonyl-L-thioprolyl-L-thioprolinal dimethyl acetal]	0.9±0.1	2.4±1.1	2.5±1.5	1.4±0.3	1.1±0.4	1.6±0.6	10 µM				
COc1ccc(C(=O)N2CCCC2=O)cc1 [aniracetam, reference compound]								1.1±0.4	1.6±0.6	2.3±0.6	0.7±0.3
